Data from US20230416261A1, “ETHANEDIAMINE-HETEROCYCLE DERIVATIVES AS INHIBITORS OF PROTEIN ARGININE METHYLTRANSFERASES” (Board of Regents, The University of Texas System, priority 2021, published 2023).

How the values were obtained:
PRMT1 [1] = target: T1, PRMT1 (Homo sapiens, UniProt Q99873); experiment: PRMT1 RKO Cellular Target Engagement Assay (In-Cell Western, asymmetric di-methyl arginine); assay type: cell-based; conditions: RKO cells, 48 hr compound incubation; read-out: RKO IC50 (PRMT-1 Target Engagement)
T1 sequence (Q99873 whole entry): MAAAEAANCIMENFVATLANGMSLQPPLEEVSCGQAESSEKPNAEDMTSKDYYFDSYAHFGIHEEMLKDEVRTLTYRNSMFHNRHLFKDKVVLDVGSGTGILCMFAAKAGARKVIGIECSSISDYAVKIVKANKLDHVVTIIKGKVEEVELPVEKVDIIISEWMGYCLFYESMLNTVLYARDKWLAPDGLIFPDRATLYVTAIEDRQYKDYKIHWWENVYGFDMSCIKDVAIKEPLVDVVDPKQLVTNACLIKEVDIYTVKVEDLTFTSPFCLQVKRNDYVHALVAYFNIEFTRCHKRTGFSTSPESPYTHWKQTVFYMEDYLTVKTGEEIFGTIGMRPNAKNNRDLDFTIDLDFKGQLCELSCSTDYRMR
Summary of the method: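 RKO cells (1,000/well) received 1:3 serially diluted compound for 48 h at 37 °C, then were fixed, permeabilised and immunostained for asymmetric di-methyl arginine by In-Cell Western. The 800 nm antibody signal was normalised to CellTag 700 nm; IC50 from four-parameter logistic fit.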

PATC53 cells = experiment: PATC53 Long Term Phenotypic Assay (14 days, crystal violet viability); assay type: cell-based; conditions: 336 h
Description: PATC53 cells were derived from the PATC53 PDX model and kindly provided by Jason Fleming (MDACC). The cells were routinely maintained in DMEM/F12 Medium (Corning, Catalog #10-090-CV) supplemented with 10% fetal bovine serum (Sigma, Catalog #F2442), 100 units/mL penicillin and 100 μg/mL streptomycin (Gibco, Catalog #15140-122) in a humidified incubator (37° C., 5% CO2). Prior to the assay, cells were seeded onto a 12-well, TC treated plate (Corning, catalog #353043) at a density of 250 cells per well in a volume of 1 mL. The plate was incubated for 24 hours at 37° C. and 5% CO2. Stock solutions of the test compounds were prepared in 100% DMSO (Sigma, Catalog #D2650) and serially diluted 1:3 using 100% DMSO. Compounds were additionally diluted 1:100 in culture medium, and 110 μL/well was transferred to the tissue culture plate. Following the compound addition, the plate was incubated at 37° C. and 5% CO2 for 14 days. Viability was then assessed by crystal violet staining (Fisher Scientific, Catalog #C58125) as follows: 450 μL of crystal violet (1 mg/mL) was added to the plate for a 10 minute incubation at room temperature. After incubation, the plate was washed 3× with distilled water to remove excess dye and allowed to dry overnight. The crystal violet was solubilized using 10% HOAc (500 μL) for 10 minutes at room temperature, while shaking. A volume of 100 μL was then transferred to a 96-well SpectraPlate (Perkin Elmer, Catalog #6005649). Absorbance at 590 nm was measured with a BioTek Synergy Neo. IC50 values were calculated using a four-parameter logistic curve fit using Genedata Screener software.

DOHH2 cells = experiment: DOHH2 Long Term Phenotypic Assay (7 days, Cell Titer-Glo viability); assay type: cell-based; conditions: Homo sapiens, DOHH-2, 168 h, Cell Titer-Glo 2.0
Summary of the method: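 DOHH2 lymphoma cells (250 per well) in RPMI-1640 with 10% FBS were exposed to 1:3 serially diluted compounds for 7 days at 37 °C, 5% CO2. Viability was read by CellTiter-Glo 2.0 luminescence, and IC50 values came from four-parameter logistic fits.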

PRMT1 [2] = target: T1, PRMT1; experiment: PRMT1 Enzymatic Assay (LANCE TR-FRET, methylation of histone H4 at Arg3); assay type: biochemical; set-up: purchased SignalChem P365-380G; conditions: PRMT1 1.5 nM, SAM 1 μM, biotinylated histone H4 (1-21) 25 nM; read-out: PRMT-1 IC50
Summary of the method: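 PRMT1 (1.5 nM) preincubated 15 min with compound at room temperature, then reacted 1 h with 1 μM SAM and 25 nM biotinylated histone H4 (1-21) in 50 mM Hepes pH 8, 1 mM TCEP, 0.003% Tween-20. H4R3me detected by TR-FRET (665/620 nm ratio); IC50 from four-parameter logistic fit.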

Structure (SMILES) | IC50 (PRMT1 [1]) [nM] | IC50 (PATC53 cells) [nM] | IC50 (DOHH2 cells) [nM] | IC50 (PRMT1 [2]) [nM]
CNCCN(C)Cc1nn2c(c1C1CCC(COC)(COC)CC1)CN(C(=O)C(C)(F)F)CC2 [Example 36, 1-(3-(4,4-bis(methoxy-methyl)cyclohexyl)-2-((methyl(2-(methylamino)-ethyl)amino)methyl)-6,7-dihydropyrazolo[1,5-a]-pyrazin-5(4H)-yl)-2,2-difluoropropan-1-one] | 269 | 246 | 190 | 50
COCC1(COC)CCC(c2c(CN(C)CCN)nn3c2CN(C(=O)C2(C(F)(F)F)CC2)CC3)CC1 [Example 46, (2-(((2-aminoethyl)(methyl)-amino)methyl)-3-(4,4-bis-(methoxymethyl)cyclohexyl)-6,7-dihydropyrazolo[1,5-a]-pyrazin-5(4H)-yl)(1-(trifluoro-methyl)cyclopropyl)-methanone] | 486 | 294 | 288 | 29
CNCCN(C)Cc1nn2c(c1C1CCC(COC)(COC)CC1)CN(C(=O)C1(C)CCC1)CC2 [Example 19, (3-(4,4-bis(methoxymethyl)-cyclohexyl)-2-((methyl(2-(methylamino)ethyl)amino)-methyl)-6,7-dihydropyrazolo-[1,5-a]pyrazin-5(4H)-yl)(1-methylcyclobutyl)methanone] | 214 | 37 | 87 | 52
COCC1(COC)CCC(c2c(CN(C)CCN)nn3c2CN(C(=O)C2CC2)CC3)CC1 [Example 6, (2-(((2-aminoethyl)(methyl)-amino)methyl)-3-(4,4-bis-(methoxymethyl)cyclohexyl)-6,7-dihydropyrazolo[1,5-a]-pyrazin-5(4H)-yl)-(cyclopropyl)methanone] | 361 | 147 | 138 | 14
CNCCN(C)Cc1nn2c(c1C1CCC(COC)(COC)CC1)CN(C(=O)COC)CC2 [Example 30, 1-(3-(4,4-bis(methoxy-methyl)cyclohexyl)-2-((methyl(2-(methylamino)-ethyl)amino)methyl)-6,7-dihydropyrazolo[1,5-a]-pyrazin-5(4H)-yl)-2-methoxyethan-1-one] | 795 | 795 | 159 | 81
COCC1(COC)CCC(c2c(CN(C)CCN)nn3c2CN(C(=O)C2CC(F)(F)C2)CC3)CC1 [Example 40, (2-(((2-aminoethyl)(methyl)-amino)methyl)-3-(4,4-bis-(methoxymethyl)cyclohexyl)-6,7-dihydropyrazolo[1,5-a]-pyrazin-5(4H)-yl)(3,3-difluorocyclobutyl)-methanone] | 1520 | 304 | 249 | 54
CNCCN(C)Cc1nn2c(c1C1CCC(COC)(COC)CC1)CN(C(=O)CC1CCC1)CC2 [Example 60, 1-(3-(4,4-bis(methoxy-methyl)cyclohexyl)-2-((methyl(2-(methylamino)-ethyl)amino)methyl)-6,7-dihydropyrazolo[1,5-a]-pyrazin-5(4H)-yl)-2-cyclobutylethan-1-one] | 345 | 33 | 82 | 54
CNCCN(C)Cc1nn2c(c1C1CCC(COC)(COC)CC1)CN(C(=O)C13CC(F)(C1)C3)CC2 [Example 21, (3-(4,4-bis(methoxymethyl)-cyclohexyl)-2-((methyl(2-(methylamino)ethyl)amino)-methyl)-6,7-dihydropyrazolo-[1,5-a]pyrazin-5(4H)-yl)(3-fluorobicyclo[1.1.1]pentan-1-yl)methanone] | 185 | 68 | 96 | 53
CNCCN(C)Cc1nn2c(c1C1CCC(COC)(COC)CC1)CN(C(=O)C1(C(F)(F)F)CC1)CC2 [Example 18, (3-(4,4-bis(methoxymethyl)-cyclohexyl)-2-((methyl(2-(methylamino)ethyl)amino)-methyl)-6,7-dihydropyrazolo-[1,5-a]pyrazin-5(4H)-yl)(1-(trifluoro-methyl)cyclopropyl)-methanone] | 137 | 48 | 142 | 60
CNCCN(C)Cc1nn2c(c1C1CCC(COC)(COC)CC1)CN(C(=O)C13CC(C1)C3)CC2 [Example 20, bicyclo[1.1.1]pentan-1-yl(3-(4,4-bis(methoxymethyl)-cyclohexyl)-2-((methyl(2-(methylamino)ethyl)amino)-methyl)-6,7-dihydropyrazolo-[1,5-a]pyrazin-5(4H)-yl)-methanone] | 239 | 50 | 103 | 62
CNCCN(C)Cc1nn2c(c1C1CCC(COC)(COC)CC1)CN(C(=O)C1(C)CCCC1)CC2 [Example 80, (3-(4,4-bis(methoxymethyl)-cyclohexyl)-2-((methyl(2-(methylamino)ethyl)amino)-methyl)-6,7-dihydropyrazolo-[1,5-a]pyrazin-5(4H)-yl)(1-methylcyclopentyl)-methanone] | 116 | 70 | 104 | 91
CNCCN(C)Cc1nn2c(c1C1CCC(COC)(COC)CC1)CN(C(=O)C(C)(C)C#N)CC2 [Example 37, 3-(3-(4,4-bis(methoxy-methyl)cyclohexyl)-2-((methyl(2-(methylamino)-ethyl)amino)methyl)-6,7-dihydropyrazolo[1,5-a]-pyrazin-5(4H)-yl)-2,2-dimethyl-3-oxopropanenitrile] | 237 | 171 | 142 | 90
CNCCN(C)Cc1nn2c(c1C1CCC(COC)(COC)CC1)CN(C(=O)C1CCOC1)CC2 (centres unmarked) [Example 35, (3-(4,4-bis(methoxymethyl)-cyclohexyl)-2-((methyl(2-(methylamino)ethyl)amino)-methyl)-6,7-dihydropyrazolo-[1,5-a]pyrazin-5(4H)-yl)-(tetrahydrofuran-3-yl)-methanone] | 818 | 655 | 212 | 62
CNCCN(C)Cc1nn2c(c1C1CCC(COC)(COC)CC1)CN(C(=O)C1(C#N)CC1)CC2 [Example 15, 1-(3-(4,4-bis(methoxy-methyl)cyclohexyl)-2-((methyl(2-(methylamino)-ethyl)amino)methyl)-4,5,6,7-tetrahydropyrazolo[1,5-a]-pyrazine-5-carbonyl)cyclopropane-1-carbonitrile] | 370 | 732 | 211 | 71
CNCCN(C)Cc1nn2c(c1C1CCC(COC)(COC)CC1)CN(C(=O)C1CCC(F)(F)CC1)CC2 [Example 29, (3-(4,4-bis(methoxymethyl)-cyclohexyl)-2-((methyl(2-(methylamino)ethyl)amino)-methyl)-6,7-dihydropyrazolo-[1,5-a]pyrazin-5(4H)-yl)(4,4-difluorocyclohexyl)-methanone] | 271 | 84 | 99 | 65
CNCCN(C)Cc1nn2c(c1C1CCC(COC)(COC)CC1)CN(C(=O)C1CC(OC)C1)CC2 (centres unmarked) [Example 58, (3-(4,4-bis(methoxymethyl)-cyclohexyl)-2-((methyl(2-(methylamino)ethyl)amino)-methyl)-6,7-dihydropyrazolo-[1,5-a]pyrazin-5(4H)-yl)(3-methoxycyclobutyl)-methanone] | 372 | 131 | 131 | 65
CNCCN(C)Cc1nn2c(c1C1CCC(COC)(COC)CC1)CN(C(=O)C(C)C)CC2 [Example 24, 1-(3-(4,4-bis(methoxy-methyl)cyclohexyl)-2-((methyl(2-(methylamino)-ethyl)amino)methyl)-6,7-dihydropyrazolo[1,5-a]-pyrazin-5(4H)-yl)-2-methylpropan-1-one] | 254 | 69 | 103 | 76
